Consider one molecule from patent publication US7365096B2, “Methods for selectively inhibiting Janus tyrosine kinase 3 (Jak3)” (Board of Regents, The University of Texas System, priority 2002, dated 2008).

The subject of test [1] is Stat5a/b. Kind of test: IL-2 activated Stat5a/b tyrosine phosphorylation in YT cells (Western blot). Format: cell-based, human. To be noted: phospho-Western blots. On the procedure:
(§1) Solubilization of membrane proteins, immunoprecipitation, and Western blot analysis. Frozen cell pellets were thawed on ice and solubilized in 1% TX-100 lysis buffer (10^8 cells/ml) and clarified by centrifugation, as previously described.^16 For human T-cells, supernates were incubated rotating end over end for 2 hours at 4° C. with either 5 μl/ml polyclonal rabbit antisera raised against peptides derived from the unique COOH-termini of Jak3 (amino acid [a.a.] 1104-1124), carboxyl termini of human Stat5a (a.a. 775-794) or Stat5b (a.a. 777-787).^26 Ab and immunoprecipitated proteins were captured by incubation for 30 minutes with Protein A-Sepharose beads (Pharmacia, Piscataway, N.J.), sedimented for purification, and eluted by boiling in 2×SDS-sample buffer (20% Glycerol, 10% 2-Mercaptoethanol, 4.6% SDS, 0.004% Bromophenol blue in 0.125 M Tris pH 6.8) for 4 minutes. For phosphoMapk assays, approximately 25 μg of total cell lysate was dissociated in SDS-sample buffer and separated on 10% (all others on 7.5%) SDS-PAGE under reducing conditions. […]
(Immunoblotting shows a protein as a band on a membrane.)

Test [2] concerns adapter protein Shc. Kind of test: Shc tyrosine phosphorylation (phospho-Western blot). To be noted: phospho-Western blots. Format: cell-based. On the procedure:
as §1

For test [3], the target named is T1, Jak3 (Homo sapiens, UniProt P52333).
T1 sequence (P52333 1-1124): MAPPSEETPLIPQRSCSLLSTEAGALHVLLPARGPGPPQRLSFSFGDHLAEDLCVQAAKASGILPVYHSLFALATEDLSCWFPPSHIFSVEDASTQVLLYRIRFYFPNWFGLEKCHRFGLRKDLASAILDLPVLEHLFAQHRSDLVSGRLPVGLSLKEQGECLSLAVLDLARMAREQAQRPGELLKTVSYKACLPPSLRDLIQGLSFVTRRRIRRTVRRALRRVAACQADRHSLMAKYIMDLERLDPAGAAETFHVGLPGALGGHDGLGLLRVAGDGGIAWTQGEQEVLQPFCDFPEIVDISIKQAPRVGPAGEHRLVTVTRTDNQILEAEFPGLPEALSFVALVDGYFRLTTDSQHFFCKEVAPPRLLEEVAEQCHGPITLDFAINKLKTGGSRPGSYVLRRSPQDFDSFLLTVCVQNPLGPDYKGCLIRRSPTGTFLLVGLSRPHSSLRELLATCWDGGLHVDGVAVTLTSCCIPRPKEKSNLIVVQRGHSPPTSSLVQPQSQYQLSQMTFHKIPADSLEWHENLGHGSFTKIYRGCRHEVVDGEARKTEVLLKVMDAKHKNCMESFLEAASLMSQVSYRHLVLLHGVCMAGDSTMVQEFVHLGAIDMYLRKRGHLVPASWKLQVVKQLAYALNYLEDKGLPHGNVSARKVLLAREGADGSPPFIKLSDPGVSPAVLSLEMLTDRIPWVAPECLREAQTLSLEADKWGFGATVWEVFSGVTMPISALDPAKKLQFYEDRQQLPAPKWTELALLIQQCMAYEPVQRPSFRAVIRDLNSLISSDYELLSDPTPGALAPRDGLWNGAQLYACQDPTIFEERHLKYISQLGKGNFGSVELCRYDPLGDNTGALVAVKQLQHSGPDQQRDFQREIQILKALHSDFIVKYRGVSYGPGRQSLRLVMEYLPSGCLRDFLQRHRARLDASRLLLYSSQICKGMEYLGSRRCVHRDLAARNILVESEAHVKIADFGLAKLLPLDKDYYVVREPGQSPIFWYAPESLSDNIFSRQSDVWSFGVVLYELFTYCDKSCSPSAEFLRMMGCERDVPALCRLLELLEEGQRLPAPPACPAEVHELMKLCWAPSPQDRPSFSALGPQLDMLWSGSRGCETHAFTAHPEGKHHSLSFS
Kind of test: Jak3 autokinase activity of immunopurified Jak3 (phosphotyrosine Western blot). Format: biochemical. Also on record: immunopurified Jak3 was assayed for Jak3 autokinase activity and tested by phosphotyrosine Western blot; endogenous in cells. The protocol: Immunopurified Jak3 was assayed for Jak3 autokinase activity and tested by phosphotyrosine Western blot in the absence or presence of 100 μM ATP and/or drug and compared to controls.
Referring now to FIG. 8, direct evidence is provided that […] (NC1153) inhibits Jak3 signaling pathways. […] The bands identified as “PY-Jak3” reveal only the active Jak3 at the indicated dosages of NC1153, with or without IL-2 and ATP.

As a reminder, the IC50 is the concentration that inhibits the measured activity by half. Read a high IC50 as weaker potency.

As for `CN(C)CC1CCCCCCCCCC(CN(C)C)C1=O` (mixture of isomers) [649641P (NC1153)], the “tyrosine phosphorylation of Stat5a/b” value in test [1] is recorded as “inhibited tyrosine phosphorylation”. For the same molecule, the “tyrosine phosphorylation of adapter protein Shc” value in test [2] is recorded as “inhibited tyrosine phosphorylation”. The same molecule gave an IC50 in test [3] (100 μM ATP) of roughly 2.5 µM. The “inhibition of Jak3 relative to Jak2 in kinase assays” value in test [3] (FIG. 9B and FIG. 8) is “At least 50 fold”.
